Like-named read-outs stand apart in the source and are kept apart here.
Assay: Ex vivo biodistribution of 177Lu-labeled ligands in PC-3 tumor-bearing mice
Conditions: mouse; for tissue to tissue ratio at 1 h / tissue to tissue ratio at 4 h / tissue to tissue ratio at 24 h / tissue to tissue ratio at 72 h / tissue to tissue ratio at 120 h: male, NOD.Cg-Rag1^tm1Mom Il2rg^tm1Wjl/SzJ (NRG), iv, total radioactivity; for tissue to tissue ratio at 1 h / tissue uptake at 1 h: 1 h pi; for tissue to tissue ratio at 4 h / tissue uptake at 4 h: 4 h pi; for tissue to tissue ratio at 24 h / tissue uptake at 24 h: 24 h pi; for tissue to tissue ratio at 120 h / tissue uptake at 120 h: 120 h pi; for tissue uptake at 1 h / tissue uptake at 4 h / tissue uptake at 24 h / tissue uptake at 72 h / tissue uptake at 120 h: intravenous
Procedure: SPECT/CT imaging was conducted using an MI Labs (Houten, The Netherlands) U-SPECT-II/CT scanner with a custom-made ultra-high sensitivity big mouse collimator (2 mm pinhole size) following published procedure. The experiments were obtained in accordance with the same protocol established in the PET/CT imaging and ex vivo biodistributions section. The mice were used for SPECT/CT imaging and ex vivo biodistributions studies once the tumors reached a diameter of 5–8 mm. PC-3 tumor-bearing mice were sedated (2.5% isoflurane in O2) and injected with 31.4–36.9 MBq of the ^177Lu-labeled ligand through a lateral caudal tail vein. The mouse was imaged at 1, 4, 24, 72, and 120 h pi. At each time point, a 5 min CT scan was performed with 615 μA and 60 kV parameters for localization and attenuation, followed by two 30 min static SPECT scans in list mode with an energy window centered around 208 keV. The U-SPECT II software was used to reconstruct data, and the images were decay corrected to the time of injection with PMOD v 3.402 (PMOD Technologies GmbH, Fallanden, Switzerland).
For ex vivo biodistribution studies, the mice were injected with ~3–5 MBq of the ^177Lu-labeled ligand (n = 5). At 1, 4, 24, 72, and 120 h post-injection, the mice were anesthetized with 2% isoflurane, euthanized by CO2 inhalation, and the tissues/organs of interest were […] for radioactivity counting. The blocking study was performed at 1 h pi via co-injection of the ^177Lu-labeled ligand with 100 μg of [D-Phe^6,Leu-NHEt^13,des-Met^14]Bombesin(6–14).

[1] = tumor/blood, n = 5, read-out: Tumor/blood uptake ratio
[2] = tumor/kidney, n = 5, read-out: Tumor/kidney uptake ratio
[3] = tumor/muscle, n = 5, read-out: Tumor/muscle uptake ratio
[4] = tumor/pancreas, n = 5, read-out: Tumor/pancreas uptake ratio
[5] = PC-3 tumor, n = 5, read-out: PC-3 tumor uptake
[6] = adrenal glands, n = 5, read-out: Adrenal glands uptake
[7] = blood, n = 5, read-out: Blood uptake
[8] = bone, n = 5, read-out: Bone uptake
[9] = brain, n = 5, read-out: Brain uptake
[10] = fat, n = 5, read-out: Fat uptake
[11] = heart, n = 5, read-out: Heart uptake

tissue to tissue ratio at 1 h (tumor/blood, blocked (100 µg GRPR antagonist co-injected), read-out: Tumor/blood uptake ratio): 3.06 ± 0.99 | tissue to tissue ratio at 1 h [1]: 16.9 ± 5.57 | tissue to tissue ratio at 4 h [1]: 136 ± 14.7 | tissue to tissue ratio at 24 h [1]: 365 ± 251 | tissue to tissue ratio at 72 h (tumor/blood, 72 h pi, n = 5, read-out: Tumor/blood uptake ratio): 1300 ± 703 | tissue to tissue ratio at 120 h [1]: 529 ± 380 | tissue to tissue ratio at 1 h (tumor/kidney, blocked (100 µg GRPR antagonist co-injected), read-out: Tumor/kidney uptake ratio): 0.52 ± 0.08 | tissue to tissue ratio at 1 h [2]: 2.17 ± 0.49 | tissue to tissue ratio at 4 h [2]: 1.61 ± 0.3 | tissue to tissue ratio at 24 h [2]: 1.34 ± 0.38 | tissue to tissue ratio at 72 h (tumor/kidney, 72 h pi, n = 5, read-out: Tumor/kidney uptake ratio): 2.17 ± 0.33 | tissue to tissue ratio at 120 h [2]: 2.77 ± 0.65 | tissue to tissue ratio at 1 h (tumor/muscle, blocked (100 µg GRPR antagonist co-injected), read-out: Tumor/muscle uptake ratio): 14.6 ± 2.5 | tissue to tissue ratio at 1 h [3]: 90 ± 17.3 | tissue to tissue ratio at 4 h [3]: 275 ± 35 | tissue to tissue ratio at 24 h [3]: 149 ± 50.5 | tissue to tissue ratio at 72 h (tumor/muscle, 72 h pi, n = 5, read-out: Tumor/muscle uptake ratio): 356 ± 110 | tissue to tissue ratio at 120 h [3]: 214 ± 77.9 | tissue to tissue ratio at 1 h (tumor/pancreas, blocked (100 µg GRPR antagonist co-injected), read-out: Tumor/pancreas uptake ratio): 6.53 ± 0.76 | tissue to tissue ratio at 1 h [4]: 14.8 ± 2.39 | tissue to tissue ratio at 4 h [4]: 48.1 ± 11.3 | tissue to tissue ratio at 24 h [4]: 26.5 ± 4.82 | tissue to tissue ratio at 72 h (tumor/pancreas, 72 h pi, n = 5, read-out: Tumor/pancreas uptake ratio): 46.8 ± 13.9 | tissue to tissue ratio at 120 h [4]: 51.5 ± 13.9 | tissue uptake at 1 h (PC-3 tumor, 100 ug, blocked (100 µg GRPR antagonist co-injected), read-out: PC-3 tumor uptake): 2.02 ± 0.44 %ID/g | tissue uptake at 1 h [5]: 5.67 ± 1.02 %ID/g | tissue uptake at 4 h [5]: 2.96 ± 0.37 %ID/g | tissue uptake at 24 h [5]: 1.12 ± 0.2 %ID/g | tissue uptake at 72 h (PC-3 tumor, 72 h pi, n = 5, read-out: PC-3 tumor uptake): 0.55 ± 0.15 %ID/g | tissue uptake at 120 h [5]: 0.32 ± 0.06 %ID/g | tissue uptake at 72 h (PC-3 tumor, after 72 h pi, read-out: tumor uptake): < 1 %ID/g | tissue uptake at 1 h (adrenal glands, 100 ug, blocked (100 µg GRPR antagonist co-injected), read-out: Adrenal glands uptake): 0.23 ± 0.06 %ID/g | tissue uptake at 1 h [6]: 0.18 ± 0.05 %ID/g | tissue uptake at 4 h [6]: 0.17 ± 0.09 %ID/g | tissue uptake at 24 h [6]: 0.12 ± 0.05 %ID/g | tissue uptake at 72 h (adrenal glands, 72 h pi, n = 5, read-out: Adrenal glands uptake): 0.02 ± 0.01 %ID/g | tissue uptake at 120 h [6]: 0.03 ± 0.02 %ID/g | tissue uptake at 1 h (blood, 100 ug, blocked (100 µg GRPR antagonist co-injected), read-out: Blood uptake): 0.74 ± 0.18 %ID/g | tissue uptake at 1 h [7]: 0.37 ± 0.14 %ID/g | tissue uptake at 4 h [7]: 0.02 %ID/g | tissue uptake at 24 h [7]: 0.01 ± 0.01 %ID/g | tissue uptake at 1 h (bone, 100 ug, blocked (100 µg GRPR antagonist co-injected), read-out: Bone uptake): 0.07 ± 0.04 %ID/g | tissue uptake at 1 h [8]: 0.06 ± 0.01 %ID/g | tissue uptake at 4 h [8]: 0.01 %ID/g | tissue uptake at 24 h [8]: 0.02 ± 0.01 %ID/g | tissue uptake at 72 h (bone, 72 h pi, n = 5, read-out: Bone uptake): 0.01 ± 0.01 %ID/g | tissue uptake at 120 h [8]: 0.01 ± 0.01 %ID/g | tissue uptake at 1 h (brain, 100 ug, blocked (100 µg GRPR antagonist co-injected), read-out: Brain uptake): 0.02 ± 0.01 %ID/g | tissue uptake at 1 h [9]: 0.02 %ID/g | tissue uptake at 4 h [9]: 0.01 %ID/g | tissue uptake at 1 h (fat, 100 ug, blocked (100 µg GRPR antagonist co-injected), read-out: Fat uptake): 0.09 ± 0.04 %ID/g | tissue uptake at 1 h [10]: 0.04 ± 0.02 %ID/g | tissue uptake at 4 h [10]: 0.01 ± 0.01 %ID/g | tissue uptake at 24 h [10]: 0.01 %ID/g | tissue uptake at 1 h (heart, 100 ug, blocked (100 µg GRPR antagonist co-injected), read-out: Heart uptake): 0.23 ± 0.05 %ID/g | tissue uptake at 1 h [11]: 0.13 ± 0.05 %ID/g | tissue uptake at 4 h [11]: 0.03 ± 0.01 %ID/g | tissue uptake at 24 h [11]: 0.02 ± 0.01 %ID/g | tissue uptake at 72 h (heart, 72 h pi, n = 5, read-out: Heart uptake): 0.01 %ID/g
Compound: CC(C)C[C@@H](CN1CC(F)(F)C[C@H]1C(N)=O)NC(=O)[C@H](Cc1c[nH]cn1)NC(=O)CN(C)C(=O)[C@@H](NC(=O)[C@H](C)NC(=O)[C@H](Cc1c[nH]c2ccccc12)NC(=O)[C@H](CCC(N)=O)NC(=O)[C@@H](Cc1ccccc1)NC(=O)CN1CCC(NC(=O)CN2CCN(CC(=O)O)CCN(CC(=O)O)CCN(CC(=O)O)CC2)CC1)C(C)C [[^177Lu]Lu-LW02080, metal not drawn]
